{"source": "patent US8518443B2", "about": "“Opioid agonist formulations with releasable and sequestered antagonist” (Purdue Pharma, L.P., priority 2001, dated 2013)", "key": {"[1]": {"assay_type": "in vivo", "description": "In certain preferred embodiments, the opioid agonist is hydrocodone or oxycodone."}, "[2]": {"details": "after oral doses; cited from earlier work"}, "[3]": {"details": "cited from earlier work"}, "[4]": {"details": "following oral administration; cited from earlier work"}, "opioid receptors": {"tested_on": "opioid receptors", "details": "daily dosage of 50 mg; cited from earlier work"}, "[5]": {"details": "in comparison to a 15 mg dose of hydrocodone"}}, "note": "Where a name gives a salt, the structure may show the parent alone. Read-outs that look alike come from different tables or passages of the source.", "data": [{"molecule": "COc1ccc2c3c1O[C@H]1[C@@H](O)C=C[C@H]4[C@@H](C2)N(C)CC[C@@]341", "note": "[Codeine]", "values": [{"measurement": "Equianalgesic dose, Calculated Dose", "setting": "[1]; [5]", "value": 90.0, "unit": "mg"}]}, {"molecule": "COc1ccc2c3c1OC1C(=O)CC[C@H]4[C@@H](C2)N(C)CC[C@]314", "note": "(stereo partly drawn) [Hydrocodone, 4,5-epoxy-3-methoxy-17-methylmorphinan-6-one]", "values": [{"measurement": "Equianalgesic dose, Calculated Dose", "setting": "[1]; [5]", "value": 15.0, "unit": "mg"}]}, {"molecule": "CN1CC[C@]23CCCC[C@H]2[C@H]1Cc1ccc(O)cc13", "note": "[Levorphanol]", "values": [{"measurement": "Equianalgesic dose, Calculated Dose", "setting": "[1]; [5]", "value": 1.8, "unit": "mg"}]}, {"molecule": "CCC(=O)C(CC(C)N(C)C)(c1ccccc1)c1ccccc1", "note": "(stereo not drawn) [Methadone]", "values": [{"measurement": "Equianalgesic dose, Calculated Dose", "setting": "[1]; [5]", "value": 9.0, "unit": "mg"}]}, {"molecule": "CN1CC[C@]23c4c5ccc(O)c4O[C@H]2[C@@H](O)C=C[C@H]3[C@H]1C5", "note": "[Morphine]", "values": [{"measurement": "Equianalgesic dose, Calculated Dose", "setting": "[1]; in vivo", "value": 27.0, "unit": "mg"}]}, {"molecule": "COc1ccc2c3c1O[C@H]1C(=O)CC[C@@]4(O)[C@@H](C2)N(C)CC[C@]314", "note": "[Oxycodone, 4,5-expoxy-14-hydroxy-3-methoxy-17-methylmorphinan-6-one]", "values": [{"measurement": "Equianalgesic dose, Calculated Dose", "setting": "[1]; [5]", "value": 13.5, "unit": "mg"}]}, {"molecule": "C[C@H]1[C@H]2Cc3ccc(O)cc3[C@]1(C)CCN2CC1CC1", "note": "[cyclazocine]", "values": [{"measurement": "duration of action", "setting": "[2]", "value": "~24", "unit": "h"}]}, {"molecule": "O=C1CC[C@@]2(O)[C@H]3Cc4ccc(O)c5c4[C@@]2(CCN3CC2CC2)[C@H]1O5", "note": "[hydrochloride salt of naltrexone]", "values": [{"measurement": "solubility in water", "setting": "[3]", "value": "about 100 mg/cc"}]}, {"molecule": "O=C1CC[C@@]2(O)[C@H]3Cc4ccc(O)c5c4[C@@]2(CCN3CC2CC2)[C@H]1O5", "note": "[naltrexone]", "values": [{"measurement": "duration of action", "setting": "[2]", "value": "~24", "unit": "h"}, {"measurement": "oral bioavailability", "setting": "[4]", "value": "5-40%"}, {"measurement": "blockade of the actions of parenterally administered opioids", "setting": "opioid receptors", "value": "adequate clinical blockade"}]}, {"molecule": "Meperidine", "values": [{"measurement": "Equianalgesic dose, Calculated Dose", "setting": "[1]; [5]", "value": 135.0, "unit": "mg"}]}]}
